According to US12365696B2, “Small-molecule focal adhesion kinase (FAK) inhibitors” (DANA-FARBER CANCER INSTITUTE, INC., priority 2019, dated 2025):

Legend:
Experiment in all cases: KINOMEscan
Assay type in all cases: binding
[1] = biological target: ABL1(T315I)-phosphorylated (Homo sapiens (Human), UniProt P00519, T315I); details: 10000 nM, read-out: Percent Control
BIKE = BIKE (Homo sapiens (Human), UniProt Q9NSY1); details: 10000 nM, read-out: Percent Control
BMPR2 = BMPR2 (Homo sapiens (Human), UniProt Q13873); details: BMPR2, 10000 nM; read-out: Percent Control
BMPR2, sequence (Q13873 27-1038): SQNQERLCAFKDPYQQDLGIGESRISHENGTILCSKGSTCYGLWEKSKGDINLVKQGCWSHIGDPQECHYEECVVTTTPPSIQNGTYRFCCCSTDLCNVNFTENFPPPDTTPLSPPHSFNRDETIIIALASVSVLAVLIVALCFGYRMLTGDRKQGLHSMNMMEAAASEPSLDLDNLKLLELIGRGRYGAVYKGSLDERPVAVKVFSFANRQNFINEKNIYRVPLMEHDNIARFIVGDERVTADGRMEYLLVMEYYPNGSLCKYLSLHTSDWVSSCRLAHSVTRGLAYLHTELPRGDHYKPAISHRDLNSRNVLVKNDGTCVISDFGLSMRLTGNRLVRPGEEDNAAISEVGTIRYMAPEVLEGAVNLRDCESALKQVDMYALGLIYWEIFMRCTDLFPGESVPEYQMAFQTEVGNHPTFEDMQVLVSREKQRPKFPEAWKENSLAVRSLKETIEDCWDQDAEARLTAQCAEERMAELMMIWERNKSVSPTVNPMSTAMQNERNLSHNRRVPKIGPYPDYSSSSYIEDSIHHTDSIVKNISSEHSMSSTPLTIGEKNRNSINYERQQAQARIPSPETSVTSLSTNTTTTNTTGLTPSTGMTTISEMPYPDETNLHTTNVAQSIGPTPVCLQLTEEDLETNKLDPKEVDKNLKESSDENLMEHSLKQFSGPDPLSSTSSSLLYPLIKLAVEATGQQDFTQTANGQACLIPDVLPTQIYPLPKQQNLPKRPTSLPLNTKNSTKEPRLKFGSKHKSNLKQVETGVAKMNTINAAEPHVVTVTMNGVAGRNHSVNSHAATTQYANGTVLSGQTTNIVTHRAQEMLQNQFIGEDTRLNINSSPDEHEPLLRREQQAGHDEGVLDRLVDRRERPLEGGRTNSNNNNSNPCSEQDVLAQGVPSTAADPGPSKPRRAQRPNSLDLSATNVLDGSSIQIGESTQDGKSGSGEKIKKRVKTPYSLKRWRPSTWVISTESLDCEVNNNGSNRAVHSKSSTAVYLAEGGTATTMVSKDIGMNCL

BRAF(V600E) = BRAF(V600E) (Homo sapiens (Human), UniProt P15056, V600E); details: 10000 nM, read-out: Percent Control
CDK4-cyclinD3 = CDK4-cyclinD3 (Homo sapiens (Human), UniProt P11802); details: CDK4-cyclinD3, 10000 nM; read-out: Percent Control
CIT = CIT (Homo sapiens (Human), UniProt O14578); details: 10000 nM, read-out: Percent Control
CSNK1D = CSNK1D (Homo sapiens (Human), UniProt P48730); details: 10000 nM, read-out: Percent Control
EGFR(T790M) = EGFR(T790M) (Homo sapiens (Human), UniProt P00533, T790M); details: 10000 nM, read-out: Percent Control
ERBB4 = ERBB4 (Homo sapiens (Human), UniProt Q15303); details: ERBB4, 10000 nM; read-out: Percent Control
FGFR1 = FGFR1 (Homo sapiens (Human), UniProt P11362); details: FGFR1, 10000 nM; read-out: Percent Control
FGFR2 = FGFR2 (Homo sapiens (Human), UniProt P21802); details: FGFR2, 10000 nM; read-out: Percent Control
FLT3(R834Q) = FLT3(R834Q) (Homo sapiens (Human), UniProt P36888, R834Q); details: 10000 nM, read-out: Percent Control
GCN2(Kin.Dom.2, S808G) = GCN2(Kin.Dom.2, S808G) (Homo sapiens (Human), UniProt Q9P2K8, S808G); details: 10000 nM, read-out: Percent Control
GCN2(Kin.Dom.2, S808G), sequence (Q9P2K8 590-1001 S808G): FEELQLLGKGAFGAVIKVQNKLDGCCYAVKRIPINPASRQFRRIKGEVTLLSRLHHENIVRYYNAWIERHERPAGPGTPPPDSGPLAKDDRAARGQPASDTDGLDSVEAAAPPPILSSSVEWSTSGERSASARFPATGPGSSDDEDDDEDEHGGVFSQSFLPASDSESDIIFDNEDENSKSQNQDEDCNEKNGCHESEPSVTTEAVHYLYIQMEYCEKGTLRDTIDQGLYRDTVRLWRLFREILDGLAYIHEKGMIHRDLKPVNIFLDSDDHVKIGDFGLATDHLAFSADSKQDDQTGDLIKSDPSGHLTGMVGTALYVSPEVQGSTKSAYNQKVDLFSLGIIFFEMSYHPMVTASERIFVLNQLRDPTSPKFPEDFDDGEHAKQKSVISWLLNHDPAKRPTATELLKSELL

HIPK4 = HIPK4 (Homo sapiens (Human), UniProt Q8NE63); details: HIPK4, 10000 nM; read-out: Percent Control
HUNK = HUNK (Homo sapiens (Human), UniProt P57058); details: 10000 nM, read-out: Percent Control
HUNK, sequence (P57058 whole entry): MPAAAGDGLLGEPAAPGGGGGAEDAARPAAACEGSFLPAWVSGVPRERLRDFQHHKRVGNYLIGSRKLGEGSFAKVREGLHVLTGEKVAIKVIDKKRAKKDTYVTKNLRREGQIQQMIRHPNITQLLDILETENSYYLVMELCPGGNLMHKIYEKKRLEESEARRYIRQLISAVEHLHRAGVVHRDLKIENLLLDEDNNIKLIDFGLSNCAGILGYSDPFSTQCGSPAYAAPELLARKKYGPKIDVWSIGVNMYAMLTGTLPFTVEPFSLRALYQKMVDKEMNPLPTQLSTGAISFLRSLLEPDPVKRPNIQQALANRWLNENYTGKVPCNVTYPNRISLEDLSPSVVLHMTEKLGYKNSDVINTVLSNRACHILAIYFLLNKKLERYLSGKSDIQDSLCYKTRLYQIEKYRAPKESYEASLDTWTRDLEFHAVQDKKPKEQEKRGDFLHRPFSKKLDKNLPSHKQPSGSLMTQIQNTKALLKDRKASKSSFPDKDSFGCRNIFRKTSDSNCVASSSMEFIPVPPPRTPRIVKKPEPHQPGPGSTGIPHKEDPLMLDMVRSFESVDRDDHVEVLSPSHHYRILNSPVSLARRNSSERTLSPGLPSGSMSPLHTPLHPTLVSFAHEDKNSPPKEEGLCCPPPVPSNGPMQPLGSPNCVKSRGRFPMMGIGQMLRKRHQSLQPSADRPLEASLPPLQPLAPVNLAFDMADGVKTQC

INSRR = INSRR (Homo sapiens (Human), UniProt P14616); details: 10000 nM, read-out: Percent Control
KIT(A829P) = KIT(A829P) (Homo sapiens (Human), UniProt P10721, A829P); details: 10000 nM, read-out: Percent Control
LATS1 = LATS1 (Homo sapiens (Human), UniProt O95835); details: LATS1, 10000 nM; read-out: Percent Control
LTK = LTK (Homo sapiens (Human), UniProt P29376); details: 10000 nM, read-out: Percent Control
MARK4 = MARK4 (Homo sapiens (Human), UniProt Q96L34); details: MARK4, 10000 nM; read-out: Percent Control
MET(M1250T) = MET(M1250T) (Homo sapiens (Human), UniProt P08581, M1250T); details: 10000 nM, read-out: Percent Control
MYLK2 = MYLK2 (Homo sapiens (Human), UniProt Q9H1R3); details: MYLK2, 10000 nM; read-out: Percent Control
MYLK2, sequence (Q9H1R3 whole entry): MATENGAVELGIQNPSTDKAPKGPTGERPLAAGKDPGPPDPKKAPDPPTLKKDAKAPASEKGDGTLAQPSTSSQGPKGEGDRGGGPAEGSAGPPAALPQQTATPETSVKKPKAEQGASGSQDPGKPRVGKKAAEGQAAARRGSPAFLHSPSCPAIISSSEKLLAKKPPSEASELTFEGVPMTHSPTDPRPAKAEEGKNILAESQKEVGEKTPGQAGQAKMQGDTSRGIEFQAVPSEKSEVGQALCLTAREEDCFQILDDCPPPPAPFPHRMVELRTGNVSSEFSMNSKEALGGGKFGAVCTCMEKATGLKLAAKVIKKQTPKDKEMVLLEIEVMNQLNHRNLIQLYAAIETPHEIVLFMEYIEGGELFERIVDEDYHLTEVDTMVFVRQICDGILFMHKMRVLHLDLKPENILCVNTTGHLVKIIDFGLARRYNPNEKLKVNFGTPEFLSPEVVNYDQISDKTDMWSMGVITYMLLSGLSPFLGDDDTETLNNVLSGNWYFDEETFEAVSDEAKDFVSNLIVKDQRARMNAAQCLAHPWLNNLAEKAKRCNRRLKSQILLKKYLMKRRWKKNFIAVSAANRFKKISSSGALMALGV

NDR1 = NDR1 (Homo sapiens (Human), UniProt Q15208); details: NDR1, 10000 nM; read-out: Percent Control
NDR1, sequence (Q15208 whole entry): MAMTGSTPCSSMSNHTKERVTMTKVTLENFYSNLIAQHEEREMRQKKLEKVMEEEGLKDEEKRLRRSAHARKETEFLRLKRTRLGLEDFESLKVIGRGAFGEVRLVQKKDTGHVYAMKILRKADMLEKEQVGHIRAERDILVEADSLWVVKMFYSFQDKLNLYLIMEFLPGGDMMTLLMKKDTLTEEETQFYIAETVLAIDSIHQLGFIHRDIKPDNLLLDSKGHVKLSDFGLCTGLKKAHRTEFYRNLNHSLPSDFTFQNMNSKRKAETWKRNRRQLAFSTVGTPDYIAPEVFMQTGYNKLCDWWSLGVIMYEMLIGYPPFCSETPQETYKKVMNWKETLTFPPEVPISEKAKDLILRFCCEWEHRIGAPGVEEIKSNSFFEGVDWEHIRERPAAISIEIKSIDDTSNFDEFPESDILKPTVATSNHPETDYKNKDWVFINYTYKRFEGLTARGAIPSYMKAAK

NLK = NLK (Homo sapiens (Human), UniProt Q9UBE8); details: 10000 nM, read-out: Percent Control
NLK, sequence (Q9UBE8 whole entry): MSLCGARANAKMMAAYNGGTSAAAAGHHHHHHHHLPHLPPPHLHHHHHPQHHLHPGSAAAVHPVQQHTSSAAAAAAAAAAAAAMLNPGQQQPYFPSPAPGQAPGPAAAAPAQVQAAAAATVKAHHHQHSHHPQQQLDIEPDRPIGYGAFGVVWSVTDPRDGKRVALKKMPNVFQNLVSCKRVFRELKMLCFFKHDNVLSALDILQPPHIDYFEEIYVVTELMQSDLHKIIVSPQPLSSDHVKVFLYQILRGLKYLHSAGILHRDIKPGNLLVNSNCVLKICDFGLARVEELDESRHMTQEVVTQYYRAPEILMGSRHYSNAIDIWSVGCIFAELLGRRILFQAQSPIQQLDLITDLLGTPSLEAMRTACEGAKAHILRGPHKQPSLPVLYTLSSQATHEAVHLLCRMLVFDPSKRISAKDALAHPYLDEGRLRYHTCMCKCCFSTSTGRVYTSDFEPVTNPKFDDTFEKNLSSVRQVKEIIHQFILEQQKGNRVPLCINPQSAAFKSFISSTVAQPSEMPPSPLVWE

p38-delta = p38-delta (Homo sapiens (Human), UniProt O15264); details: 10000 nM, read-out: Percent Control
PAK6 = PAK6 (Homo sapiens (Human), UniProt Q9NQU5); details: PAK6, 10000 nM; read-out: Percent Control
PFPK5(P. falciparum) = PFPK5(P. falciparum) (Plasmodium falciparum (isolate 3D7), UniProt P61075); details: 10000 nM, read-out: Percent Control
PRKCI = PRKCI (Homo sapiens (Human), UniProt P41743); details: 10000 nM, read-out: Percent Control
PRKD1 = PRKD1 (Homo sapiens (Human), UniProt Q15139); details: PRKD1, 10000 nM; read-out: Percent Control
RIOK1 = RIOK1 (Homo sapiens (Human), UniProt Q9BRS2); details: RIOK1, 10000 nM; read-out: Percent Control
[2] = biological target: RPS6KA4(Kin.Dom.2-C-terminal) (Homo sapiens (Human), UniProt O75676); details: 10000 nM, read-out: Percent Control
RPS6KA4(Kin.Dom.2-C-terminal), sequence (O75676 411-674): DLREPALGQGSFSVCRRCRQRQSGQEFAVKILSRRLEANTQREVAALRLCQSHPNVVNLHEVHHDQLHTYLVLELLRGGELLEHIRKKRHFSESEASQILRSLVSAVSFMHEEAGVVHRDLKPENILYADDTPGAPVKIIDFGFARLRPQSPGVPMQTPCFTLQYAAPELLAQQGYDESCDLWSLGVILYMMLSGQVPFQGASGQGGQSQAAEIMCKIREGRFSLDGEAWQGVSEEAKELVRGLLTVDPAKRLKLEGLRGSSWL

SRC = SRC (Homo sapiens (Human), UniProt P12931); details: 10000 nM, read-out: Percent Control
SRPK1 = SRPK1 (Homo sapiens (Human), UniProt Q96SB4); details: SRPK1, 10000 nM; read-out: Percent Control
ULK1 = ULK1 (Homo sapiens (Human), UniProt O75385); details: ULK1, 10000 nM; read-out: Percent Control
ULK1, sequence (O75385 whole entry): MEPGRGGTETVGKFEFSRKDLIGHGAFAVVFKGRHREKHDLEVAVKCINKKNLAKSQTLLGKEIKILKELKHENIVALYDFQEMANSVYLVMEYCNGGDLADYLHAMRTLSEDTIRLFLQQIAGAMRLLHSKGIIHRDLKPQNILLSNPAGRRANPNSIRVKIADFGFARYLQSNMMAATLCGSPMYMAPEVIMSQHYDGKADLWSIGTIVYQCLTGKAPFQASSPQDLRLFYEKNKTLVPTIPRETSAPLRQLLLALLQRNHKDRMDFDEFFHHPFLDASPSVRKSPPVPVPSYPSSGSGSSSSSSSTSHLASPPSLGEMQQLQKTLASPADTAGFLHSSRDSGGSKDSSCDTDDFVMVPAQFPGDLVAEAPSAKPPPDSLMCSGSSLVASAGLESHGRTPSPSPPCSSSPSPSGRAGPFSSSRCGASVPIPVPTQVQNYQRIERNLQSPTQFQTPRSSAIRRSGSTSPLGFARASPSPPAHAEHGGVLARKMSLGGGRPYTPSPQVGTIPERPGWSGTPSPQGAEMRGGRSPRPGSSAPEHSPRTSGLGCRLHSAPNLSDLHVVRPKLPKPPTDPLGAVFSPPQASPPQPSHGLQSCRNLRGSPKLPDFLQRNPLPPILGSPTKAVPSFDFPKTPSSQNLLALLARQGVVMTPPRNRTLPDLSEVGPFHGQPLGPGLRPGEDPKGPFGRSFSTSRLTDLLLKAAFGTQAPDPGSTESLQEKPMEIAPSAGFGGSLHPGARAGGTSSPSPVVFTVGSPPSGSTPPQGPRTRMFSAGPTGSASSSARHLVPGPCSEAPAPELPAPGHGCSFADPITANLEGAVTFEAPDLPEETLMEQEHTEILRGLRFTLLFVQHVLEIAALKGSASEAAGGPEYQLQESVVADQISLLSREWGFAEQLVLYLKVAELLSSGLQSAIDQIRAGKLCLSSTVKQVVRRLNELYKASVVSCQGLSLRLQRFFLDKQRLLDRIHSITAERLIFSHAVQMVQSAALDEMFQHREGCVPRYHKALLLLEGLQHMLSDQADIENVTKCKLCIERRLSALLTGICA

YSK1 = YSK1 (Homo sapiens (Human), UniProt O00506); details: YSK1, 10000 nM; read-out: Percent Control

SMILES	remaining binding at 10 µM [1]	remaining binding at 10 µM (BIKE)	remaining binding at 10 µM (BMPR2)	remaining binding at 10 µM (BRAF(V600E))	remaining binding at 10 µM (CDK4-cyclinD3)	remaining binding at 10 µM (CIT)	remaining binding at 10 µM (CSNK1D)	remaining binding at 10 µM (EGFR(T790M))	remaining binding at 10 µM (ERBB4)	remaining binding at 10 µM (FGFR1)	remaining binding at 10 µM (FGFR2)	remaining binding at 10 µM (FLT3(R834Q))	remaining binding at 10 µM (GCN2(Kin.Dom.2, S808G))	remaining binding at 10 µM (HIPK4)	remaining binding at 10 µM (HUNK)	remaining binding at 10 µM (INSRR)	remaining binding at 10 µM (KIT(A829P))	remaining binding at 10 µM (LATS1)	remaining binding at 10 µM (LTK)	remaining binding at 10 µM (MARK4)	also measured
COc1cc(N2CCC(N3CCN(C)CC3)CC2)ccc1Nc1ncc2c(n1)N(C)c1sc(C)nc1C(=O)N2 [Compound 3, 6-((2-methoxy-4-(4-(4-methylpiperazin-1-yl)piperidin-1-yl)phenyl)amino)-2,4-dimethyl-4,9-dihydro-10H-pyrimido[5,4-b]thiazolo[5,4-e][1,4]diazepin-10-one]	93%	73%	100%	100%	95%	73%	54%	100%	57%	75%	80%	100%	88%	82%	95%	84%	47%	77%	81%	83%	remaining binding at 10 µM (MET(M1250T)): 82%; remaining binding at 10 µM (MYLK2): 84%; remaining binding at 10 µM (NDR1): 97%; remaining binding at 10 µM (NLK): 59%; remaining binding at 10 µM (p38-delta): 82%; remaining binding at 10 µM (PAK6): 97%; remaining binding at 10 µM (PFPK5(P. falciparum)): 100%; remaining binding at 10 µM (PRKCI): 73%; remaining binding at 10 µM (PRKD1): 78%; remaining binding at 10 µM (RIOK1): 62%; remaining binding at 10 µM [2]: 100%; remaining binding at 10 µM (SRC): 63%; remaining binding at 10 µM (SRPK1): 100%; remaining binding at 10 µM (ULK1): 100%; remaining binding at 10 µM (YSK1): 79%
COc1cc(N2CCC(N3CCN(C)CC3)CC2)ccc1Nc1ncc2c(n1)N(C)c1sc(C)nc1C(=O)N2C [Compound 5, 6-((2-methoxy-4-(4-(4-methylpiperazin-1-yl)piperidin-1-yl)phenyl)amino)-2,4,9-trimethyl-4,9-dihydro-10H-pyrimido[5,4-b]thiazolo[5,4-e][1,4]diazepin-10-one]	98%	100%	100%	97%	100%	98%	87%	93%	100%	90%	100%	81%	94%	100%	97%	22%	100%	50%	97%	87%	remaining binding at 10 µM (MET(M1250T)): 100%; remaining binding at 10 µM (MYLK2): 97%; remaining binding at 10 µM (NDR1): 98%; remaining binding at 10 µM (NLK): 93%; remaining binding at 10 µM (p38-delta): 100%; remaining binding at 10 µM (PAK6): 100%; remaining binding at 10 µM (PFPK5(P. falciparum)): 97%; remaining binding at 10 µM (PRKCI): 97%; remaining binding at 10 µM (PRKD1): 43%; remaining binding at 10 µM (RIOK1): 100%; remaining binding at 10 µM [2]: 30%; remaining binding at 10 µM (SRC): 100%; remaining binding at 10 µM (SRPK1): 100%; remaining binding at 10 µM (ULK1): 98%; remaining binding at 10 µM (YSK1): 100%
